What was measured:
MPTP-treated mice = test: MPTP mouse model; type: in vivo; settings: SNc, western blot, FIG. 17B
Description: A) Schematic for experiments in panels B-K. C57BL/6 mice (8 week-old) received 4 i.p. injections of MPTP (20 mg/kg at 2 hr intervals) or vehicle on day 0. […] N=6. […] Quantification of TH protein normalized to control (C,D). N=6. E-G) Example of immunostaining of TH in SNc and striatum (E, scale bars, 500 μm SNc, 1 mm striatum). Quantification of TH-positive neurons in SNc (F) and TH intensity in the striatum (G). N=6. H,I) Dopamine (DA) content in striatum and SnC. N=6. J) Percentage of TH-positive neurons that were positive for TUNEL staining. N=6. K) Behavioral response of mice in rotarod test. Data are duration that mice remained on an accelerated rolling rod normalized to mice at day 0. N=8. Data are examples and mean±SEM. […] Statistical analysis at day 7 and day 14 was Mann-Whitney. In the figure, *p<0.05, **p<0.01.
FIG. 10. […] A) Schematic of experiments in panels B-F. C57BL/6 mice (8 week-old) received 4 i.p. injections of MPTP (20 mg/kg at 2 hr intervals) or vehicle on day 0. […] B,C) Pyruvate and ATP levels in mouse SNc. N=6. D) Mitochondrial DNA (mDNA, 16S and ND1) relative to nuclear DNA (nDNA, intron β-globin) by quantitative PCR of mouse striatum and SNc. N=3. E,F) VDAC (E) and PHB1 (F) protein levels in striatum and SNc assayed by western blot and normalized to control. N=6.
FIG. 12. […] A) Schematic for experiments in panels B-J. C57BL/6 mice (8 week-old) received 4 i.p. injections of MPTP (20 mg/kg at 2 hr intervals) or vehicle on day 0. […] B) Example of TH immunostaining in the SNc on days 7 and 14. Scale bar, 500 μm. C-F) Measurement of DOPAC in mouse striatum (C) and SNc (D) and measurement of HVA in striatum (E) and SNc (F). (N=6). G) Example of TH and TUNEL co-staining in the SNc. TH (green), TUNEL (red), and DAPI (nuclei, blue). Scale bar, 25 μm. Quantitative data are in FIG. 2J. H) Left panels are Nissl staining of neurons in the striatum. Samples were obtained 7 days after MPTP injection. Right panels show the quantification. […] Scale bar, 400 μm. N=3 per group. I,J) Behavioral response of mice in the pole test. (I) Time mice took to turn their heads from upward to downward. (J) Time mice took to climb down the pole. N=8.
MPTP was injected (i.p.) on one day at 20 mg/kg for four times at 2-hour intervals, as previously described (4). […] At the end of the drug or saline treatment, behavioral tests including rotarod test and pole test were carried out before the animals were sacrificed.
The rotarod test was carried out using an automated rotarod (E103, UGO BASILE). At a fixed speed of 15 revolutions per minute (rpm), mice were pre-trained for two consecutive days until they were able to remain on the rod for more than 60 seconds. […] The latency to fall was recorded for a maximum recording time of 600 seconds. The behavior was monitored by a video camera.
This test was carried out by leaving a pole in the cage where the mice were housed. The pole test was performed on the 14th day after MPTP injection as previously described (9). The mouse was placed in a head-upward position on top of a vertical pole (diameter 8 mm, height 55 cm) with a ball (diameter 2.5 cm) on the head of the pole. The pole was wrapped with the nylon gauze to prevent the mouse from slipping down. Each mouse was trained twice before testing. The time that the mouse took to turn his head from upward to downward (Time: Turn) and the time the mouse took to reach the floor with his forepaws (Time: Locomotion Activity) were recorded. Each mouse was tested three times with 5 min. intervals, and the average time was quantified.

[1] = tested on: M17 human neuroblastoma cells; test: Glycolysis and mitochondrial function in M17 cells; settings: in vitro, 10 μM, 24 hr (ECAR)
Description: Cells were incubated with mild hypoxia for 12 hr before study. Cells were cultured in a sealed chamber (Stemcell Technologies Vancouver, Canada) that was flushed with a humidified gas mixture composed of 5% 02, 5% carbon dioxide (CO2), and 90% nitrogen (N2) for 12 hr. […] Assays of ATP, pyruvate, and citrate synthase activities (CS) were performed according to the manufacturer's instructions.
A Seahorse XV analyzer (XF^e-24, Seahorse Bioscience, Billerica, Mass., USA) was used to measure the oxygen consumption rate (OCR) and the extracellular acidification rate (ECAR) as previously described (18). The M17 cells and iPS cells were seeded in XF^e 24-well plates (Seahorse Bioscience), while the plates used for iPS cells were poly-D-lysine pre-coated. Assay medium was prepared by supplementing Seahorse XF^eBaseMedium minimal DMEM (Seahorse Bioscience) with 2 mM L-glutamine for a Glycolysis Stress Test assay or 2 mM L-glutamine, 1 mM pyruvate and 10 mM glucose for a Mito Stress Test assay (Sigma). pH was adjusted to 7.4 at 37° C. Probes (Seahorse Bioscience) were hydrated in the calibrant (Seahorse Bioscience) in a non-CO2 incubator at 37° C. overnight. Cells were washed twice with assay medium and kept in a non-CO2 incubator at 37° C. for 1 hr before analysis. Glucose, oligomycin and 2-deoxy-glucose (2-DG) were pre-loaded in the probe plate for Glycolysis Stress Test, while oligomycin, FCCP and a mixture of rotenone and antimycin A were used for Mito Stress Test.
Citrate synthase (CS) activity, LDH assay and pyruvate level were detected using commercial kits according to the manufacturer's directions. ATP content in animal tissues and M17 cells were detected with the ATP assay kit following the manufacturer's directions.

[2] = tested on: Hela cell stably expressed FUS-GFP; test: Hela cells stably expressing FUS-GFP; type: cell-based
Excerpt: FIG. 19. Relative ATP levels in Hela cells expressing FUS-GTP after treatment with alfazosin (AZ) and rotenone (Rot).
FIG. 20. Expression levels of FUS-GTP in cells treated with alfazosin (AZ), rotenone (Rot), and 17AAG, an inhibitor of the ATPase of HSP90.
FIG. 21. Fluorescence recovery of FUS-GTP in Hela cells after photobleaching.
We studied Hela cell stably expressed FUS-GFP to determine whether alfazosin (AZ) affected the molecule biology of FUS. (See FIG. 19). FUS forms phase-separated aggregates in cells and is commonly used to test agents that enhance or inhibit aggregate formation. The cells were maintained under mild hypoxic condition (5% oxygen), in which mitochondria function at their highest level. Alfazosin (AZ) was added in the culture medium with or without rotenone, a mitochondrial respiration inhibitor. 60 hours later, we measured the ATP level. The control (without AZ) is set as 1 (N=3).
We quantified FUS-GFP protein levels using actin as a protein loading control. (See FIG. 20). Rotenone (Rot) is a mitochondrial respiration inhibitor, 17AAG is an inhibitor of the ATPase of HSP90. The control level of FUS/actin is set as 1, and relative ratio of other treatment is compared.
(See FIG. 21). After 30 seconds photobleaching, the recovery of GFP signal was measured and plotted. N=10.

[3] = tested on: Hek293T cells expressing APPswe-GFP; test: Hek293T cells transfected with APPswe-GFP; type: cell-based; settings: 24 hours
Excerpt: FIG. 22. Expression of amyloid precursor protein (APP) Swedish mutation tagged with GFP (APPswe-GFP) in transfected Hek293T cells. Left panel—expression of GFP in cells treated with alfazosin (AZ). Right panel—relative intensity versus treatment with increasing concentrations of AZ.
FIG. 23. Western blot quantification of APPswe-GFP in transfected Hek293T cells treated with increasing concentration of alfazosin (AZ).
We also studied Hek293T cells that were transfected with the amyloid precursor protein (APP) Swedish mutation tagged with GFP (APPswe-GFP). (See FIG. 22). After transfection, AZ (1-10 μM) was added for 24 hours. The GFP intensity without AZ treatment was set as 1.
AZ (1-100 μM) was added for 24 hours to Hek293T cells expressing APPswe-GFP. Then, cell lysates were collected for protein quantification by western blot. (See FIG. 23). The APP/actin ratio was plotted.

| Structure (SMILES) | tyrosine hydroxylase levels in MPTP-treated mice (MPTP-treated mice) | glycolysis [1] | ATP increase with rotenone ([2]; 5% oxygen, 60 hours, with rotenone) | ATP level ([2]; 5% oxygen, 60 hours, without rotenone) | FUS-GFP protein levels ([2]; FUS/actin, western) | aggregation of APPswe-GFP (GFP intensity) ([3]; AZ 1-10 μM) | APPswe-GFP levels (APP/actin ratio, western blot) ([3]; AZ 1-100 μM) |
| --- | --- | --- | --- | --- | --- | --- | --- |
| COc1cc2nc(N3CCN(C(=O)C4COc5ccccc5O4)CC3)nc(N)c2cc1OC (stereo not drawn) [doxazosin] | increased | increased | – | – | – | – | – |
| COc1cc2nc(N(C)CCCNC(=O)C3CCCO3)nc(N)c2cc1OC (stereo not drawn) [alfuzosin] | increased | increased | abolished | increases | reduced | decrease | reduces |

Source: US20220000871A1, “METHODS AND COMPOSITIONS FOR TREATING NEURODEGENERATIVE DISEASES USING MODULATORS OF PHOSPHOGLYCERATE KINASE 1 (PGK1) ACTIVITY” (UNIVERSITY OF IOWA RESEARCH FOUNDATION, priority 2019, published 2022)
